ChEMBL document CHEMBL1126227, “The synthesis and reactivity of ,-acetylenic and allenic sulfoxides and sulfones of dehydroepiandrosterone and their reactions with 1-butanethiol and glucose-6-phosphate dehydrogenase” (Bioorg Med Chem Lett, 1992)

Molecular target: Glucose-6-phosphate dehydrogenase (Bos taurus) (UniProt Q5EM56)
Assay: Percent inhibition against bovine adrenal G6PDH (glucose-6-phosphate dehydrogenase) at a concentration of 10 e-5 M

Sequence of Glucose-6-phosphate dehydrogenase (Bos taurus) (Q5EM56 as listed by the source): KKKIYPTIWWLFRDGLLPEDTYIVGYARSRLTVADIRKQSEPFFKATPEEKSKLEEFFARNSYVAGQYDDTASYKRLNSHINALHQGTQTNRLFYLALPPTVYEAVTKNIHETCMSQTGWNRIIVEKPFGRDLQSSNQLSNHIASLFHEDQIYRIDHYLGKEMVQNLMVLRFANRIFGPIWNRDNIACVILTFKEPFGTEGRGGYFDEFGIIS

`C#CCS(=O)(=O)[C@H]1CC[C@@]2(C)C(=CCC3C2CC[C@]2(C)C(=O)CCC32)C1` (stereo not given in full) was tested, and the inhibition was 20%.
`C=C=CS(=O)(=O)[C@H]1CC[C@@]2(C)C(=CCC3C2CC[C@]2(C)C(=O)CCC32)C1` (stereo not given in full) gave an inhibition of 15%.
`C#CC[S+]([O-])[C@H]1CC[C@@]2(C)C(=CCC3C2CC[C@]2(C)C(=O)CCC32)C1` (stereo not given in full) was tested, and the inhibition was < 5%.
`C#CCS[C@H]1CC[C@@]2(C)C(=CCC3C2CC[C@]2(C)C(=O)CCC32)C1` (stereo not given in full) was tested, and the inhibition was 47%.
`C=C=C[S+]([O-])[C@H]1CC[C@@]2(C)C(=CCC3C2CC[C@]2(C)C(=O)CCC32)C1` (stereo not given in full) was tested, and the inhibition was < 5%.
